Test results published in paper PMC11524583, “Neurons enhance blood–brain barrier function via upregulating claudin-5 and VE-cadherin expression due to glial cell line-derived neurotrophic factor secretion” (eLife, 2024).
Several values for one entry are separate records, joined by “and”; a condition that tells them apart may be missing. Equal entries are not always repeated. Where two headings read alike, the source gives them in different places.

How the values were obtained:
[1] = In vitro BBB permeability study (Papp), double co-culture with U251 cells (h+U); type: in vitro ADME, Homo sapiens; settings: human, group h+U, Figure 1D/1E
[2] = system: double co-culture BBB model (hCMEC/D3 and U251 cells); experiment: as above; type: in vitro ADME, Homo sapiens; settings: group h+U, Figure 1D/1E; single biological replicate; listed as NaF
[3] = In vitro BBB permeability study (Papp), double co-culture with SH-SY5Y cells (h+S); type: in vitro ADME, Homo sapiens; settings: human, group h+S, Figure 1D/1E
[4] = system: double co-culture BBB model (hCMEC/D3 and SH-SY5Y cells); experiment: as above; type: in vitro ADME, Homo sapiens; settings: group h+S, Figure 1D/1E; single biological replicate; listed as NaF
[5] = Permeability (Papp) across U251 mono-culture model; type: in vitro ADME, Homo sapiens; settings: human, group U251 mono-culture, Figure 1F
U251 cells monolayer = experiment: Permeability (Papp) across U251 mono-culture model; type: in vitro ADME, Homo sapiens; settings: group U251 mono-culture, Figure 1F; single replicate
[6] = Permeability (Papp) across the blank inserts; type: in vitro ADME; settings: blank inserts (no cells), Figure 1F; for Papp at 30 min: not told
Experimental: Therefore, the subsequent experiments were all completed on day 6. The culture medium was removed from the apical and basolateral sides of the inserts and washed twice with preheated Hank’s balanced salt solution (HBSS). Fresh HBSS was then added to both the apical and basolateral chambers. […] Next, 200 μl aliquots were collected from the basolateral chamber after 30 min of incubation at 37°C. The concentrations of the tested agents in the basolateral chamber were measured.
The apparent permeability coefficient (Papp, cm/s) values of the tested agents across the in vitro BBB model were calculated using the equation ([Tavelin et al., 2002]):(1) Papp=(Q/1800)/(S×C0)
where S is the surface area of the insert membrane (0.33 cm^2 for 6.5 mm inserts, 4.46 cm^2 for 24 mm inserts), Q is the transported amount of the tested agents transported from the donor chamber to the receiver chamber for 30 min (1800 s), and C0 is the initial concentration of the tested agents in the donor chamber.

[7] = In vitro BBB permeability study (Papp), triple co-culture BBB model; settings: human
[8] = system: triple co-culture BBB model (hCMEC/D3, U251 and SH-SY5Y cells); experiment: as above
[9] = In vitro BBB permeability study (Papp), hCMEC/D3 mono-culture BBB model; settings: human
[10] = system: hCMEC/D3 mono-culture BBB model; experiment: as above
[11] = BBB permeability in brain-specific Gdnf knockdown mice (brain distribution of fluorescein and FITC-Dex); settings: Gdnf silencing (shGdnf) vs shNC mice; i.v., 30 min
[12] = mean of four replicates, read-out: Papp Mean
[13] = single biological replicate, read-out: Papp
[14] = single replicate, read-out: Papp

Q: For `O=C1OC2(c3ccc(O)cc3Oc3cc(O)ccc32)c2ccccc21` [fluorescein, fluorescein sodium], which Papp A→B at 30 min [1, 12] is on record?
A: 29.1 ×10⁻⁶ cm/s

Q: And the Papp A→B at 30 min [1, 13]?
A: 28.2 ×10⁻⁶ cm/s

Q: And the Papp A→B [2]?
A: 30.2 ×10⁻⁶ cm/s and 29.6 ×10⁻⁶ cm/s and 28.1 ×10⁻⁶ cm/s

Q: What about the Papp A→B at 30 min [3, 12] of the same compound?
A: 27.8 ×10⁻⁶ cm/s

Q: What about the Papp A→B at 30 min [3, 13] of the same compound?
A: 29.4 ×10⁻⁶ cm/s

Q: What about the Papp A→B [4] of the same compound?
A: 29.1 ×10⁻⁶ cm/s and 23.2 ×10⁻⁶ cm/s and 29.5 ×10⁻⁶ cm/s

Q: And the Papp A→B at 30 min [5, 12]?
A: 30.6 ×10⁻⁶ cm/s

Q: What about the Papp A→B at 30 min [5, 14] of the same compound?
A: 29.5 ×10⁻⁶ cm/s

Q: And the Papp A→B (U251 cells monolayer)?
A: 30.6 ×10⁻⁶ cm/s and 31.9 ×10⁻⁶ cm/s and 30.2 ×10⁻⁶ cm/s

Q: What about the “Papp” value ([6]; single replicate) of the same compound?
A: 72.71 ×10⁻⁶ cm/s and 72.14 ×10⁻⁶ cm/s and 72.59 ×10⁻⁶ cm/s

Q: And the Papp at 30 min [6, 12]?
A: 71.6 ×10⁻⁶ cm/s

Q: And the Papp at 30 min [6, 14]?
A: 68.7 ×10⁻⁶ cm/s

Q: And the Papp A→B at 30 min ([7]; Papp Mean, Triple group, mean of 4, Figure 2R)?
A: 25 ×10⁻⁶ cm/s

Q: What about the Papp A→B at 30 min ([7]; Papp Mean, Triple group, mean of 4, Figure 2T) of the same compound?
A: 20.5 ×10⁻⁶ cm/s

Q: And the Papp A→B at 30 min ([7]; Papp Mean, Triple+PP2 group, mean of 4, Figure 2T)?
A: 27.5 ×10⁻⁶ cm/s

Q: What about the Papp A→B at 30 min ([7]; Papp Mean, Triple+SPP group, mean of 4, Figure 2R) of the same compound?
A: 30 ×10⁻⁶ cm/s

Q: What about the Papp A→B at 30 min ([7]; Papp Mean, group h+S+U, Figure 1D/1E, mean of four replicates) of the same compound?
A: 24.9 ×10⁻⁶ cm/s

Q: And the Papp A→B at 30 min ([7]; Papp(cm/s), group h+S+U, Figure 1D/1E, single biological replicate)?
A: 26.1 ×10⁻⁶ cm/s

Q: And the Papp A→B at 30 min ([7]; Papp, Triple group, single replicates, Figure 2R)?
A: 25.3 ×10⁻⁶ cm/s

Q: What about the Papp A→B at 30 min ([7]; Papp, Triple group, single replicates, Figure 2T) of the same compound?
A: 21.5 ×10⁻⁶ cm/s

Q: What about the Papp A→B at 30 min ([7]; Papp, Triple+PP2 group, single replicates, Figure 2T) of the same compound?
A: 28.2 ×10⁻⁶ cm/s

Q: What about the Papp A→B at 30 min ([7]; Papp, Triple+SPP group, single replicates, Figure 2R) of the same compound?
A: 30.6 ×10⁻⁶ cm/s

Q: And the Papp A→B ([8]; read-out: Papp(cm/s), group h+S+U, Figure 1D/1E, single biological replicate, listed as NaF)?
A: 26.4 ×10⁻⁶ cm/s and 23.5 ×10⁻⁶ cm/s and 23.6 ×10⁻⁶ cm/s

Q: And the Papp A→B ([8]; read-out: Papp, Triple group, single replicates, Figure 2R)?
A: 24.7 ×10⁻⁶ cm/s and 24.9 ×10⁻⁶ cm/s and 25 ×10⁻⁶ cm/s

Q: And the Papp A→B ([8]; read-out: Papp, Triple group, single replicates, Figure 2T)?
A: 20.2 ×10⁻⁶ cm/s and 20.5 ×10⁻⁶ cm/s and 19.8 ×10⁻⁶ cm/s

Q: What about the Papp A→B ([8]; read-out: Papp, Triple+PP2 group, single replicates, Figure 2T) of the same compound?
A: 26.4 ×10⁻⁶ cm/s

Q: What about the Papp A→B ([8]; read-out: Papp, Triple+SPP group, single replicates, Figure 2R) of the same compound?
A: 29.1 ×10⁻⁶ cm/s and 30.2 ×10⁻⁶ cm/s

Q: And the Papp A→B at 30 min ([9]; Papp Mean, Mono group, mean of 4, Figure 2R)?
A: 31.8 ×10⁻⁶ cm/s

Q: And the Papp A→B at 30 min ([9]; Papp Mean, Mono group, mean of 4, Figure 2T)?
A: 30.4 ×10⁻⁶ cm/s

Q: And the Papp A→B at 30 min ([9]; Papp Mean, group h, Figure 1D/1E, mean of four replicates)?
A: 32.2 ×10⁻⁶ cm/s

Q: What about the Papp A→B at 30 min ([9]; Papp Mean, group hCEMC/D3 mono-culture, Figure 1F, mean of four replicates) of the same compound?
A: 35.7 ×10⁻⁶ cm/s

Q: What about the Papp A→B at 30 min ([9]; Papp(cm/s) Mean, Figure 2N, group GDNF+SPP, group mean) of the same compound?
A: 24.5 ×10⁻⁶ cm/s

Q: And the Papp A→B at 30 min ([9]; Papp(cm/s) Mean, Figure 2N, group GDNF, group mean)?
A: 19 ×10⁻⁶ cm/s

Q: And the Papp A→B at 30 min ([9]; Papp(cm/s) Mean, Figure 2N, group Mono, group mean)?
A: 23.8 ×10⁻⁶ cm/s

Q: And the Papp A→B at 30 min ([9]; Papp(cm/s) Mean, Figure 2P, group GDNF+PP2, group mean)?
A: 28.2 ×10⁻⁶ cm/s

Q: And the Papp A→B at 30 min ([9]; Papp(cm/s) Mean, Figure 2P, group GDNF, group mean)?
A: 23.5 ×10⁻⁶ cm/s

Q: And the Papp A→B at 30 min ([9]; Papp(cm/s) Mean, Figure 2P, group Mono, group mean)?
A: 30.8 ×10⁻⁶ cm/s

Q: And the Papp A→B at 30 min ([9]; Papp(cm/s), Figure 2N, group GDNF+SPP, individual replicates)?
A: 26.5 ×10⁻⁶ cm/s

Q: What about the Papp A→B at 30 min ([9]; Papp(cm/s), Figure 2N, group GDNF, individual replicates) of the same compound?
A: 19.4 ×10⁻⁶ cm/s

Q: And the Papp A→B at 30 min ([9]; Papp(cm/s), Figure 2N, group Mono, individual replicates)?
A: 21.9 ×10⁻⁶ cm/s

Q: What about the Papp A→B at 30 min ([9]; Papp(cm/s), Figure 2P, group GDNF+PP2, individual replicates) of the same compound?
A: 27.5 ×10⁻⁶ cm/s

Q: And the Papp A→B at 30 min ([9]; Papp(cm/s), Figure 2P, group GDNF, individual replicates)?
A: 23.6 ×10⁻⁶ cm/s

Q: What about the Papp A→B at 30 min ([9]; Papp(cm/s), Figure 2P, group Mono, individual replicates) of the same compound?
A: 31 ×10⁻⁶ cm/s

Q: What about the Papp A→B at 30 min ([9]; Papp(cm/s), group h, Figure 1D/1E, single biological replicate) of the same compound?
A: 31.7 ×10⁻⁶ cm/s

Q: What about the Papp A→B at 30 min ([9]; Papp(cm/s), group hCEMC/D3 mono-culture, Figure 1F, single replicate) of the same compound?
A: 36.2 ×10⁻⁶ cm/s

Q: What about the Papp A→B at 30 min ([9]; Papp, Mono group, single replicates, Figure 2R) of the same compound?
A: 30.7 ×10⁻⁶ cm/s

Q: And the Papp A→B at 30 min ([9]; Papp, Mono group, single replicates, Figure 2T)?
A: 30.8 ×10⁻⁶ cm/s

Q: And the Papp A→B ([10]; read-out: Papp(cm/s), Figure 2N, group GDNF+SPP, individual replicates)?
A: 22 ×10⁻⁶ cm/s and 26.7 ×10⁻⁶ cm/s

Q: What about the Papp A→B ([10]; read-out: Papp(cm/s), Figure 2N, group GDNF, individual replicates) of the same compound?
A: 17.7 ×10⁻⁶ cm/s and 20.6 ×10⁻⁶ cm/s and 18.3 ×10⁻⁶ cm/s

Q: What about the Papp A→B ([10]; read-out: Papp(cm/s), Figure 2N, group Mono, individual replicates) of the same compound?
A: 24.3 ×10⁻⁶ cm/s and 25.1 ×10⁻⁶ cm/s and 23.7 ×10⁻⁶ cm/s

Q: What about the Papp A→B ([10]; read-out: Papp(cm/s), Figure 2P, group GDNF+PP2, individual replicates) of the same compound?
A: 28.3 ×10⁻⁶ cm/s

Q: And the Papp A→B ([10]; read-out: Papp(cm/s), Figure 2P, group GDNF, individual replicates)?
A: 23.3 ×10⁻⁶ cm/s (2×) and 23.8 ×10⁻⁶ cm/s

Q: And the Papp A→B ([10]; read-out: Papp(cm/s), Figure 2P, group Mono, individual replicates)?
A: 30.5 ×10⁻⁶ cm/s and 31.5 ×10⁻⁶ cm/s and 30.3 ×10⁻⁶ cm/s

Q: What about the Papp A→B ([10]; read-out: Papp(cm/s), group h, Figure 1D/1E, single biological replicate, listed as NaF) of the same compound?
A: 32 ×10⁻⁶ cm/s and 32.7 ×10⁻⁶ cm/s and 32.5 ×10⁻⁶ cm/s

Q: What about the Papp A→B ([10]; read-out: Papp(cm/s), group hCEMC/D3 mono-culture, Figure 1F, single replicate) of the same compound?
A: 35.9 ×10⁻⁶ cm/s and 34.8 ×10⁻⁶ cm/s and 36 ×10⁻⁶ cm/s

Q: And the Papp A→B ([10]; read-out: Papp, Mono group, single replicates, Figure 2R)?
A: 31.7 ×10⁻⁶ cm/s and 33.3 ×10⁻⁶ cm/s and 31.4 ×10⁻⁶ cm/s

Q: And the Papp A→B ([10]; read-out: Papp, Mono group, single replicates, Figure 2T)?
A: 29.5 ×10⁻⁶ cm/s and 30.3 ×10⁻⁶ cm/s

Q: What about the brain-to-plasma concentration ratios [11] of the same compound?
A: notable increases
